Measured values reported in paper PMC2905628 (Molecular cancer therapeutics, 2010).

Target: T1, protein kinase D2 (PKD2) (Homo sapiens, UniProt Q9BZL6)
T1 sequence (Q9BZL6 1-878): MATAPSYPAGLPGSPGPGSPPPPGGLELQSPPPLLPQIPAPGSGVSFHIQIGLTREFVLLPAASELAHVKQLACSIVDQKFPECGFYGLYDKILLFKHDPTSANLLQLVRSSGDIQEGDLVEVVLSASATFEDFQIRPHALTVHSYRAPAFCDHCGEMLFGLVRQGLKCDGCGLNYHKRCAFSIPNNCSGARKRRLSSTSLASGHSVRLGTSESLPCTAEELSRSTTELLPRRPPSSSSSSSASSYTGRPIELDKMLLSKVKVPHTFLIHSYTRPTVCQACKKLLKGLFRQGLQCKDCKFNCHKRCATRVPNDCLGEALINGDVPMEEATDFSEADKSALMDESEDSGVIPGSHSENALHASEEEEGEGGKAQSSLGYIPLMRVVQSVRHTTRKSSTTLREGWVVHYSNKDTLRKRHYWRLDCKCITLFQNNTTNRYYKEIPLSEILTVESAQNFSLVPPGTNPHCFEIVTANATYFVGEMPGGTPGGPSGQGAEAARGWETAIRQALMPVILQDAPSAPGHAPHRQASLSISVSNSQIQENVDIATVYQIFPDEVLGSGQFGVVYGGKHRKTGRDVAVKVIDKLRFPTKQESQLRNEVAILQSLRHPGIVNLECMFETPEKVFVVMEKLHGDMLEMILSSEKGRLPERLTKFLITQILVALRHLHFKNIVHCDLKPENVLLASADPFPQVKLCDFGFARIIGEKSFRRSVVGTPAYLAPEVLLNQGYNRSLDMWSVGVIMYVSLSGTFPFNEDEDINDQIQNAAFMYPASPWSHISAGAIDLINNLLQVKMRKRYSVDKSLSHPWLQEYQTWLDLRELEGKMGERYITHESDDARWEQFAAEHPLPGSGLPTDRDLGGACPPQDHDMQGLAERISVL
Experiment: IMAP fluorescence polarization kinase assay, peptide substrate phosphorylation
Type: biochemical

`CC[C@@H](N)CNc1ccnc(-c2cc(-c3cnn(C)c3)ccc2O)n1` [CRT0066101] showed an IC50 of 2.5 nM.
